This experiment has as its target T1, human H1 receptor (Homo sapiens, UniProt P35367).
T1 construct: expressed in transfected cells; host or cells: CHO cells (crude membranes)
The experiment in a line: Human histamine H1 receptor binding assay. The note with it: competition with 1.5 nM [pyridinyl-5-3H] Pyrilamine, crude membranes of CHO cells transfected with human H1 receptor; Ki from IC50 by Cheng-Prusoff. On the procedure: Compounds of the present invention may be evaluated for binding to the histamine H1 receptor by a standard binding assay. […] Pyrilamine (˜30 Ci/mmol, Amersham TRK608) in the presence of varying concentrations of competing ligand. Non-specific binding is determined in the presence of excess (1 μM) doxepin. Bound and free ligand are separated by rapid vacuum filtration using a Packard 96-well cell harvester onto UniFilter GF/C filter plates (PerkinElmer) that has been pretreated with 1% polyethyleneimine. The filter plates are then washed with 600 μl phosphate buffered saline containing 0.01% (v/v) Triton-X100. Bound radioligand is determined by scintillation counting using a TopCount-NXT (Packard). Binding data is analyzed by nonlinear, least-squares curve fitting algorithms using GraphPad Prism (GraphPad Software, Inc. San Diego, Calif.) or ActivityBase (IDBS, Guildford, Surrey, UK).

The values that follow come from patent US7393865B2, “Sleep inducing compounds and methods relating thereto” (Neurocrine Biosciences, Inc., priority 2004, dated 2008).

T1 sequence (P35367 whole entry): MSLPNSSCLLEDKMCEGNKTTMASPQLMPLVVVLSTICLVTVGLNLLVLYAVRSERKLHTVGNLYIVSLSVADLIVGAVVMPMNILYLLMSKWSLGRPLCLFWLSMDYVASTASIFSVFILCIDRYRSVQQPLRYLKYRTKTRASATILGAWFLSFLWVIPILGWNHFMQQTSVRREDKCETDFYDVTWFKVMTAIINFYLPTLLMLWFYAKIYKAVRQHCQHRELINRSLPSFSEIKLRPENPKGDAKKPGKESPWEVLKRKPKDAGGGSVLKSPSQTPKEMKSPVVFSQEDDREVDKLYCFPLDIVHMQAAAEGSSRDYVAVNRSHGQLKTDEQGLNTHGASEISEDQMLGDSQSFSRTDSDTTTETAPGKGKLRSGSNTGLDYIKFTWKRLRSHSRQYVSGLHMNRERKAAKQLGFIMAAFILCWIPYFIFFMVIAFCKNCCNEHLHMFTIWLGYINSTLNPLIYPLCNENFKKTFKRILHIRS

One may read the Ki as a measure of affinity in units of concentration, obtained from inhibition or displacement. A low value points to a stronger hold on the target. `CC(c1cscn1)c1c(CCN(C)C)sc2ccccc12` (stereo in doubt) [Compound 16-4, Dimethyl-{2-[3-((R)-1-thiazol-4-yl-ethyl)-benzo[b]thiophen-2-yl]-ethyl}-amine] displayed a Ki of at most 1000 nM.

Regarding `CN(C)CCc1sc2ccccc2c1Cc1ccc(F)cc1` [Compound 3-2, {2-[3-(4-Fluoro-benzyl)-benzo[b]thiophen-2-yl]-ethyl}-dimethyl-amine], the inhibition constant (Ki) is at most 1000 nM.

For the compound `CN(C)CCc1sc2ccccc2c1C(C)(O)c1ccc(F)cc1` (centres unmarked) [Compound 3-3, 1-[2-(2-Dimethylamino-ethyl)-benzo[b]thiophen-3-yl]-1-(4-fluoro-phenyl)-ethanol], the Ki was at most 1000 nM.

The compound `CC(c1ccc(F)cc1)c1c(CCN(C)C)sc2ccccc12` (centres unmarked) [Compound 3-4, (2-{3-[1-(4-Fluoro-phenyl)-ethyl]-benzo[b]thiophen-2-yl}-ethyl)-dimethyl-amine] had an inhibitory constant (Ki) of at most 1000 nM.

Consider `Cc1ccc2c(C(C)c3ccccn3)c(CCN(C)C)sc2c1` (centres unmarked) [Compound 4-2, Dimethyl-{2-[6-methyl-3-(1-pyridin-2-yl-ethyl)-benzo[b]thiophen-2-yl]-ethyl}-amine], for which the Ki was at most 1000 nM.

Compound `Cc1ccc2c([C@@H](C)c3ccccn3)c(CCN(C)C)sc2c1` [Compound 4-3, Dimethyl-{2-[6-methyl-3-((R)-1-pyridin-2-yl-ethyl)-benzo[b]thiophen-2-yl]-ethyl}-amine] yielded a Ki of at most 1000 nM.

Take `C=C(c1ccccn1)c1c(CCN(C)C)sc2cc(C)ccc12` [Compound 4-6, Dimethyl-{2-[6-methyl-3-(1-pyridin-2-yl-vinyl)-benzo[b]thiophen-2-yl]-ethyl}-amine]: the inhibitory constant (Ki) is at most 1000 nM.

`Cc1ccnc(C(C)c2c(CCN(C)C)sc3ccccc23)c1` (centres unmarked) [Compound 5-3, Dimethyl-(2-{3-[1-(4-methyl-pyridin-2-yl)-ethyl]-benzo[b]thiophen-2-yl}-ethyl)-amine] returned an inhibition constant (Ki) of at most 1000 nM.

For `CN(C)CCc1sc2ccccc2c1C(C)(O)c1ccccn1` (centres unmarked) [Compound 6-1, 1-[2-(2-Dimethylamino-ethyl)-benzo[b]thiophen-3-yl]-1-pyridin-2-yl-ethanol], the Ki was at most 1000 nM.

With `C=C(c1ccccn1)c1c(CCN(C)C)sc2ccccc12` [Compound 6-2, Dimethyl-{2-[3-(1-pyridin-2-yl-vinyl)-benzo[b]thiophen-2-yl]-ethyl}-amine], the Ki was at most 1000 nM.

Turning to `CC(c1ccccn1)c1c(CCN(C)C)sc2ccccc12` (centres unmarked) [Compound 6-3, Dimethyl-{2-[3-(1-pyridin-2-yl-ethyl)-benzo[b]thiophen-2-yl]-ethyl}-amine], the Ki was at most 1000 nM.

For the compound `C=C(c1cccnc1)c1c(CCN(C)C)sc2ccccc12` [Compound 6-4, Dimethyl-{2-[3-(1-pyridin-3-yl-vinyl)-benzo[b]thiophen-2-yl]-ethyl}-amine], the inhibition constant Ki is at most 1000 nM.

As to `C=C(c1ccncc1)c1c(CCN(C)C)sc2ccccc12` [Compound 6-5, Dimethyl-{2-[3-(1-pyridin-4-yl-vinyl)-benzo[b]thiophen-2-yl]-ethyl}-amine], the Ki is at most 1000 nM.

`CC(c1ccncc1)c1c(CCN(C)C)sc2ccccc12` (centres unmarked) [Compound 6-7, Dimethyl-{2-[3-(1-pyridin-4-yl-ethyl)-benzo[b]thiophen-2-yl]-ethyl}-amine] yielded an inhibition constant Ki of at most 1000 nM.

`COc1cccnc1C(C)c1c(CCN(C)C)sc2ccccc12` (centres unmarked) [Compound 6-10, Dimethyl-(2-{3-[1-(3-methoxy-pyridin-2-yl)-ethyl]-benzo[b]thiophen-2-yl}-ethyl)-amine] displayed a Ki of at most 1000 nM.

In turn, `CC(c1ccc(F)cn1)c1c(CCN(C)C)sc2ccccc12` (centres unmarked) [Compound 7-3, (2-{3-[1-(5-Fluoro-pyridin-2-yl)-ethyl]-benzo[b]thiophen-2-yl}-ethyl)-dimethyl-amine] registered an inhibitory constant (Ki) of at most 1000 nM.

Regarding `C[C@@H](c1ccc(F)cn1)c1c(CCN(C)C)sc2ccccc12` [Compound 7-4, (2-{3-[(R)-1-(5-Fluoro-pyridin-2-yl)-ethyl]-benzo[b]thiophen-2-yl}-ethyl)-dimethyl-amine], the inhibition constant Ki is at most 1000 nM.

`C[C@H](c1ccc(F)cn1)c1c(CCN(C)C)sc2ccccc12` [Compound 7-5, (2-{3-[(S)-1-(5-Fluoro-pyridin-2-yl)-ethyl]-benzo[b]thiophen-2-yl}-ethyl)-dimethyl-amine] returned an inhibition constant (Ki) of at most 1000 nM.

The compound `CC(c1nccs1)c1c(CCN(C)C)sc2ccccc12` (centres unmarked) [Compound 8-3, Dimethyl-{2-[3-(1-thiazol-2-yl-ethyl)-benzo[b]thiophen-2-yl]-ethyl}-amine] had a Ki of at most 1000 nM.

With `CNCCc1sc2ccccc2c1C(C)c1ccccn1` (centres unmarked) [Compound 9-1, Methyl-{2-[3-(1-pyridin-2-yl-ethyl)-benzo[b]thiophen-2-yl]-ethyl}-amine], the Ki was at most 1000 nM.

Turning to `CCCN(C)CCc1sc2ccccc2c1C(C)c1ccccn1` (centres unmarked) [Compound 9-2, Methyl-propyl-{2-[3-(1-pyridin-2-yl-ethyl)-benzo[b]thiophen-2-yl]-ethyl}-amine], the inhibitory constant (Ki) was at most 1000 nM.

`Cc1ccc(C(C)c2c(CCN(C)C)sc3ccccc23)cn1` (centres unmarked) [Compound 10-3, Dimethyl-(2-{3-[1-(6-methyl-pyridin-3-yl)-ethyl]-benzo[b]thiophen-2-yl}-ethyl)-amine] displayed a Ki of at most 1000 nM.

`CC(c1cnccn1)c1c(CCN(C)C)sc2ccccc12` (centres unmarked) [Compound 11-2, Dimethyl-{2-[3-(1-pyrazin-2-yl-ethyl)-benzo[b]thiophen-2-yl]-ethyl}-amine] displayed a Ki of at most 1000 nM.

On to `C[C@H](c1ccccn1)c1c(CCN(C)C)sc2ccccc12` [Compound 12-1, Dimethyl-{2-[3-((S)-1-pyridin-2-yl-ethyl)-benzo[b]thiophen-2-yl]-ethyl}-amine], for which the Ki was at most 1000 nM.

Compound `C[C@@H](c1ccccn1)c1c(CCN(C)C)sc2ccccc12` [Compound 12-2, Dimethyl-{2-[3-((R)-1-pyridin-2-yl-ethyl)-benzo[b]thiophen-2-yl]-ethyl}-amine] gave a Ki of at most 1000 nM.

`CN(C)CCc1sc2ccccc2c1Cc1ccccn1` [Compound 13-3, Dimethyl-[2-(3-pyridin-2-ylmethyl-benzo[b]thiophen-2-yl)-ethyl]-amine] came in with a Ki of at most 1000 nM.

The compound `CN(C)CCc1sc2ccccc2c1Cc1cncnc1` [Compound 13-4, Dimethyl-[2-(3-pyrimidin-5-ylmethyl-benzo[b]thiophen-2-yl)-ethyl]-amine] displayed a Ki of at most 1000 nM.

Turning to `CN(C)CCc1sc2ccccc2c1Cc1nccs1` [Compound 13-5, Dimethyl-[2-(3-thiazol-2-ylmethyl-benzo[b]thiophen-2-yl)-ethyl]-amine], the Ki was at most 1000 nM.

In the case of `CN(C)CCc1sc2ccccc2c1Cc1cscn1` [Compound 13-6, Dimethyl-[2-(3-thiazol-4-ylmethyl-benzo[b]thiophen-2-yl)-ethyl]-amine], the inhibition constant (Ki) was at most 1000 nM.

For `COc1cccnc1Cc1c(CCN(C)C)sc2ccccc12` [Compound 13-7, {2-[3-(3-Methoxy-pyridin-2-ylmethyl)-benzo[b]thiophen-2-yl]-ethyl}-dimethyl-amine], the Ki was at most 1000 nM.

On to `CN(C)CCc1sc2ccccc2c1Cc1cccc(O)n1` [Compound 13-8, 6-[2-(2-Dimethylamino-ethyl)-benzo[b]thiophen-3-ylmethyl]-pyridin-2-ol], for which the inhibition constant Ki was at most 1000 nM.

Compound `CN(C)CCc1sc2ccccc2c1Cc1cnccn1` [Compound 13-9, Dimethyl-[2-(3-pyrazin-2-ylmethyl-benzo[b]thiophen-2-yl)-ethyl]-amine] came in with an inhibition constant Ki of at most 1000 nM.

Turning to `CN(C)CCc1sc2ccccc2c1Cc1cncn1C` [Compound 13-11, Dimethyl-{2-[3-(3-methyl-3H-imidazol-4-ylmethyl)-benzo[b]thiophen-2-yl]-ethyl}-amine], the inhibition constant Ki is at most 1000 nM.

`CN(C)CCc1sc2ccccc2c1Cc1cnns1` [Compound 13-12, Dimethyl-[2-(3-[1,2,3]thiadiazol-5-ylmethyl-benzo[b]thiophen-2-yl)-ethyl]-amine] gave a Ki of at most 1000 nM.

Turning to `Cc1cc(Cc2c(CCN(C)C)sc3ccccc23)n(C)n1` [Compound 13-13, {2-[3-(2,5-Dimethyl-2H-pyrazol-3-ylmethyl)-benzo[b]thiophen-2-yl]-ethyl}-dimethyl-amine], the Ki is at most 1000 nM.

Compound `CN(C)CCc1sc2ccccc2c1Cc1nn(C)cc1Cl` [Compound 13-14, {2-[3-(4-Chloro-1-methyl-1H-pyrazol-3-ylmethyl)-benzo[b]thiophen-2-yl]-ethyl}-dimethyl-amine] returned a Ki of at most 1000 nM.

As to `CN(C)CCc1sc2ccccc2c1Cc1nccn1C` [Compound 13-15, Dimethyl-{2-[3-(1-methyl-1H-imidazol-2-ylmethyl)-benzo[b]thiophen-2-yl]-ethyl}-amine], the Ki is at most 1000 nM.

The compound `COc1cccc(C(C)c2c(CCN(C)C)sc3ccccc23)n1` (centres unmarked) [Compound 15-2, (2-{3-[1-(6-Methoxy-pyridin-2-yl)-ethyl]-benzo[b]thiophen-2-yl}-ethyl)-dimethyl-amine] displayed a Ki of at most 1000 nM.

For the compound `CC(c1cccc(F)n1)c1c(CCN(C)C)sc2ccccc12` (centres unmarked) [Compound 15-3], the Ki is at most 1000 nM.

`COc1ncccc1C(C)c1c(CCN(C)C)sc2ccccc12` (centres unmarked) [Compound 15-4, Dimethyl-(2-{3-[1-(2-methoxy-pyridin-3-yl)-ethyl]-benzo[b]thiophen-2-yl}-ethyl)-amine] gave an inhibition constant Ki of at most 1000 nM.

For `COc1ncccc1[C@@H](C)c1c(CCN(C)C)sc2ccccc12` [Compound 15-5, Dimethyl-(2-{3-[(R)-1-(2-methoxy-pyridin-3-yl)-ethyl]-benzo[b]thiophen-2-yl}-ethyl)-amine], the Ki is at most 1000 nM.
